Source: patent US12239643B2, “Therapeutic agent for inflammatory diseases, autoimmune diseases, fibrotic diseases, and cancer diseases” (MEIJI SEIKA PHARMA CO., LTD., priority 2018, dated 2025)
pIC50: −log10 of the molar value. Where two headings read alike, the source gives them in different places.

Experiments:
[1] = Hepatic metabolic stability (rat liver microsome method); format: in vitro ADME; conditions: rat liver microsomes 0.5 mg/mL, test substance 1 μM, NADPH 1 mM, 37° C., 30 minutes
Protocol: Metabolic stability in rat liver microsomes was evaluated by the following method. First, in 100 mM of potassium phosphate buffer solution (pH 7.4), liver microsomes (concentration at reaction: 0.5 mg/mL) and the test substance (concentration at reaction: 1 μM) were preincubated at 37° C. Five minutes later, 100 mM of potassium phosphate buffer (pH 7.4) solution of NADPH (concentration at reaction: 1 mM) was mixed thereto to start the reaction. After a predetermined time passed, acetonitrile was mixed to the reaction mixture to stop the reaction. Here, the reaction time was 0 and 30 minutes, and drug concentration measurement was performed for each time period using LC-MS. The % remaining value of the test compound was calculated from the value for 0 minutes and the value for 30 minutes, using the calculation formula below: % Remaining=(Value for 30 Minutes/Value for 0 Minutes)×100
The results of measuring the rat liver microsome metabolic Stability (% remaining for 30-minute reaction) for the test compound by the above method were evaluated in accordance with the following evaluated basis; A: a % remaining rate of 75% or more, B: 60% or more and less than 75%, C: 45% or more and less than 60%, and D: less than 45%.

[2] = tested on: PDE4; assay: Evaluation of PDE4 inhibitory activity, scintillation proximity assay; format: biochemical; conditions: scintillation proximity assay
Procedure, shortened: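 SPA with [2,8-3H]-cAMP and diluted PDE4 enzyme preparation in 50 mM Tris-HCl pH 7.4, 8.3 mM MgCl2, 1.7 mM EGTA, 3 mg/mL BSA, 120 min at room temperature. Product captured on ZnSO4-containing YSi-SPA beads, scintillation counted; IC50 from inhibition curves vs DMSO control and no-enzyme blank.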

[3] = read-out: PDE4 Inhibitory Activity (Evaluation 1; concentration for the inhibition rate of 50%)
[4] = class symbols of Evaluation 1, read-out: PDE4 Inhibitory Activity (concentration for the inhibition rate of 50%, IC50), Evaluation 1

For CC(C)(O)C(F)(F)Oc1ccc(-c2ccsn2)c2oc(N3CC4CCC(C3)N4)nc12 [Example 331, 1-((2-(3,8-Diazabicyclo[3.2.1]octan-3-yl)-7-(isothiazol-3-yl)benzo[d]oxazol-4-yl)oxy)-1,1-difluoro-2-methylpropan-2-ol], the “Residual ratio (% remaining for 30-minute reaction)” value [1] was “B (B: 60% or more and less than 75%)” and the pIC50 [2, 3] was over 7.00.

With O=S(=O)(c1ccc(-c2nccs2)c2oc(N3CC4CC(C3)N4)nc12)N1CCOCC1 [Example 391, 2-(3,6-Diazabicyclo[3.1.1]heptan-3-yl)-4-(morpholinosulfonyl)-7-(thiazol-2-yl)benzo[d]oxazole] the “Residual ratio (% remaining for 30-minute reaction)” value [1] was “B (B: 60% or more and less than 75%)” and the pIC50 [2, 3] was over 7.00.

In the case of FC(F)(F)c1ccc(Oc2cc(-c3nccs3)c3oc(N4CC5CC(C4)N5)nc3c2)nc1 [Example 413, 2-(3,6-Diazabicyclo[3.1.1]heptan-3-yl)-7-(thiazol-2-yl)-5-((5-(trifluoromethyl)pyridin-2-yl)oxy)benzo[d]oxazole], the “Residual ratio (% remaining for 30-minute reaction)” value [1] was “A (A: a % remaining rate of 75% or more)” and the pIC50 [2, 3] was over 7.00.

In the case of c1csc(-c2ccc(O[C@H]3CCOC3)c3nc(N4CC5CC(C4)N5)oc23)n1 [Example 323, 2-(3,6-Diazabicyclo[3.1.1]heptan-3-yl)-4-(((S)-tetrahydrofuran-3-yl)oxy)-7-(thiazol-2-yl)benzo[d]oxazole], the “Residual ratio (% remaining for 30-minute reaction)” value [1] was “B (B: 60% or more and less than 75%)” and the pIC50 [2, 3] was over 7.00.

With CCC(O)C(F)(F)Oc1ccc(-c2nccs2)c2oc(N3CC4CC(C3)N4)nc12 (stereo not drawn) [Example 395, 1-((2-(3,6-Diazabicyclo[3.1.1]heptan-3-yl)-7-(thiazol-2-yl)benzo[d]oxazol-4-yl)oxy)-1,1-difluorobutan-2-ol] the “Residual ratio (% remaining for 30-minute reaction)” value [1] was “B (B: 60% or more and less than 75%)” and the pIC50 [2, 3] was over 7.00.

With O=C(NCCO)c1ccc(-c2nccs2)c2oc(N3CC4CC(C3)N4)nc12 [Example 355, 2-(3,6-Diazabicyclo[3.1.1]heptan-3-yl)-N-(2-hydroxyethyl)-7-(thiazol-2-yl)benzo[d]oxazole-4-carboxamide] the “Residual ratio (% remaining for 30-minute reaction)” value [1] was “A (A: a % remaining rate of 75% or more)” and the pIC50 [2, 3] was over 7.00.

In the case of OCc1cnc(Oc2ccc(-c3nccs3)c3oc(N4CC5CC(C4)N5)nc23)c(C(F)(F)F)c1 [Example 342, (6-((2-(3,6-Diazabicyclo[3.1.1]heptan-3-yl)-7-(thiazol-2-yl)benzo[d]oxazol-4-yl)oxy)-5-(trifluoromethyl)pyridin-3-yl)methanol], the “Residual ratio (% remaining for 30-minute reaction)” value [1] was “B (B: 60% or more and less than 75%)” and the pIC50 [2, 3] was over 7.00.

In the case of CC(O)(CO)C(F)(F)Oc1ccc(-c2nccs2)c2oc(N3CC4CC(C3)N4)nc12 (single isomer, unassigned) [Example 365, 3-((2-(3,6-Diazabicyclo[3.1.1]heptan-3-yl)-7-(thiazol-2-yl)benzo[d]oxazol-4-yl)oxy)-3,3-difluoro-2-methylpropane-1,2-diol], the “Residual ratio (% remaining for 30-minute reaction)” value [1] was “A (A: a % remaining rate of 75% or more)” and the pIC50 [2, 3] was over 7.00.

In the case of c1ccc(Oc2ccc(-c3nccs3)c3oc(N4CC5CC(C4)N5)nc23)nc1 [Example 337, 2-(3,6-Diazabicyclo[3.1.1]heptan-3-yl)-4-(pyridin-2-yloxy)-7-(thiazol-2-yl)benzo[d]oxazole], the “Residual ratio (% remaining for 30-minute reaction)” value [1] was “B (B: 60% or more and less than 75%)”.

OC(c1cc(-c2nccs2)c2oc(N3CC4CC(C3)N4)nc2c1OC(F)(F)F)C(F)F (stereo not drawn) [Example 293, 1-(2-(3,6-Diazabicyclo[3.1.1]heptan-3-yl)-7-(thiazol-2-yl)-4-(trifluoromethoxy)benzo[d]oxazol-5-yl)-2,2-difluoroethan-1-ol] showed a pIC50 [2, 3] of over 7.00.

Compound CC(O)C(F)(F)Oc1ccc(-c2cscn2)c2oc(N3CC4CCC(C3)N4)nc12 (stereo not drawn) [Example 310, 1-((2-(3,8-Diazabicyclo[3.2.1]octan-3-yl)-7-(thiazol-4-yl)benzo[d]oxazol-4-yl)oxy)-1,1-difluoropropan-2-ol] has a pIC50 [2, 3] of over 7.00.

Compound Clc1ccc(-c2nccs2)c2oc(N3CC4CC(C3)N4)nc12 [Example 37, 2-(3,6-Diazabicyclo[3.1.1]heptan-3-yl)-4-chloro-7-(thiazol-2-yl)benzo[d]oxazole] has a pIC50 [2, 4] of over 7.00.

CCOC(c1cc(-c2nccs2)c2oc(N3CC4CC(C3)N4)nc2c1)C(F)(F)F (stereo not drawn) [Example 150, 2-(3,6-Diazabicyclo[3.1.1]heptan-3-yl)-5-(1-ethoxy-2,2,2-trifluoroethyl)-7-(thiazol-2-yl)benzo[d]oxazole] showed a pIC50 [2, 4] of over 7.00.

FC(F)(F)c1c(Cl)cc(-n2cccn2)c2oc(N3CC4CCC(C3)N4)nc12 [Example 15, 2-(3,8-Diazabicyclo[3.2.1]octan-3-yl)-5-chloro-7-(1H-pyrazol-1-yl)-4-(trifluoromethyl)benzo[d]oxazole] showed a pIC50 [2, 4] of over 7.00.

NC(=O)c1cc(-c2nccs2)c2oc(N3CC4CCC(C3)N4)nc2c1 [Example 99, 2-(3,8-Diazabicyclo[3.2.1]octan-3-yl)-7-(thiazol-2-yl)benzo[d]oxazole-5-carboxamide] showed a pIC50 [2, 4] of over 7.00.

With OC(c1ccc(-c2nccs2)c2oc(N3CC4CC(C3)N4)nc12)C(F)F (stereo not drawn) [Example 125, 1-(2-(3,6-Diazabicyclo[3.1.1]heptan-3-yl)-7-(thiazol-2-yl)benzo[d]oxazol-4-yl)-2,2-difluoroethan-1-ol] the pIC50 [2, 4] was over 7.00.

O=C(c1cc(-c2nccs2)c2oc(N3CC4CCC(C3)N4)nc2c1)N1CCOCC1 [Example 95, (2-(3,8-Diazabicyclo[3.2.1]octan-3-yl)-7-(thiazol-2-yl)benzo[d]oxazol-5-yl) (morpholino)methanone] showed a pIC50 [2, 4] of over 7.00.

Compound OCc1cc(-c2nccs2)c2oc(N3CC4CCC(C3)N4)nc2c1C(F)(F)F [Example 170, (2-(3,8-Diazabicyclo[3.2.1]octan-3-yl)-7-(thiazol-2-yl)-4-(trifluoromethyl)benzo[d]oxazol-5-yl)methanol] has a pIC50 [2, 4] of over 7.00.

Work on OC(c1cc(-c2cscn2)c2oc(N3CC4CCC(C3)N4)nc2c1OC(F)(F)F)C(F)F (stereo not drawn) [Example 302, 1-(2-(3,8-Diazabicyclo[3.2.1]octan-3-yl)-7-(thiazol-4-yl)-4-(trifluoromethoxy)benzo[d]oxazol-5-yl)-2,2-difluoroethan-1-ol] yielded a pIC50 [2, 3] of over 7.00.

Compound O=C(NCc1ccccc1)c1ccc(-c2nccs2)c2oc(N3CC4CC(C3)N4)nc12 [Example 361, N-benzyl-2-(3,6-diazabicyclo[3.1.1]heptan-3-yl)-7-(thiazol-2-yl)benzo[d]oxazole-4-carboxamide] has a pIC50 [2, 3] of over 7.00.

Work on COC(C)c1cc(-c2nccs2)c2oc(N3CC4CCC(C3)N4)nc2c1OC(F)(F)F (stereo not drawn) [Example 210, 2-(3,8-Diazabicyclo[3.2.1]octan-3-yl)-5-(1-methoxyethyl)-7-(thiazol-2-yl)-4-(trifluoromethoxy)benzo[d]oxazole] yielded a pIC50 [2, 3] of over 7.00.

With OC(c1cc(-c2cscn2)c2oc(N3CC4CC(C3)N4)nc2c1OC(F)(F)F)C(F)F (stereo not drawn) [Example 300, 1-(2-(3,6-Diazabicyclo[3.1.1]heptan-3-yl)-7-(thiazol-4-yl)-4-(trifluoromethoxy)benzo[d]oxazol-5-yl)-2,2-difluoroethan-1-ol] the pIC50 [2, 3] was over 7.00.

Work on OC(c1cc(-c2nccs2)c2oc(N3CC4CCC(C3)N4)nc2c1OC(F)(F)F)C(F)F (stereo not drawn) [Example 206, 1-(2-(3,8-Diazabicyclo[3.2.1]octan-3-yl)-7-(thiazol-2-yl)-4-(trifluoromethoxy)benzo[d]oxazol-5-yl)-2,2-difluoroethan-1-ol] yielded a pIC50 [2, 3] of over 7.00.

CN(C)S(=O)(=O)c1ccc(-c2nccs2)c2oc(N3CC4CC(C3)N4)nc12 [Example 388, 2-(3,6-Diazabicyclo[3.1.1]heptan-3-yl)-N,N-dimethyl-7-(thiazol-2-yl)benzo[d]oxazole-4-sulfonamide] gave a pIC50 [2, 3] of over 7.00.

For CON=C(C)c1cc(-c2nccs2)c2oc(N3CC4CCC(C3)N4)nc2c1OC(F)(F)F (mixture of isomers) [Example 218, (E)-1-(2-(3,8-diazabicyclo[3.2.1]octan-3-yl)-7-(thiazol-2-yl)-4-(trifluoromethoxy)benzo[d]oxazol-5-yl)ethan-1-one O-methyloxime and (Z)-1-(2-(3,8-diazabicyclo[3.2.1]octan-3-yl)-7-(thiazol-2-yl)-4-(trifluoromethoxy)benzo[d]oxazol-5-yl)ethan-1-one O-methyloxime], the pIC50 [2, 3] was over 7.00.

Work on COC(C)(c1cc(-c2nccs2)c2oc(N3CC4CCCC(C3)N4)nc2c1)C(F)(F)F (stereo not drawn) [Example 162] yielded a pIC50 [2, 4] of over 7.00.

In the case of CC(O)c1cc(-c2nccs2)c2oc(N3CC4CCC(C3)N4)nc2c1 (stereo not drawn) [Example 106, 1-(2-(3,8-Diazabicyclo[3.2.1]octan-3-yl)-7-(thiazol-2-yl)benzo[d]oxazol-5-yl)ethan-1-ol], the pIC50 [2, 4] was over 7.00.

CC(=O)c1cc(-c2nccs2)c2oc(N3CC4CCC(C3)N4)nc2c1 [Example 108, 1-(2-(3,8-Diazabicyclo[3.2.1]octan-3-yl)-7-(thiazol-2-yl)benzo[d]oxazol-5-yl)ethan-1-one] showed a pIC50 [2, 4] of over 7.00.
